Experimental data reported in BindingDB's records for patent US20240307415 (Jiangsu Simcere Pharmaceutical, 2024).

Target: T1, Glucocorticoid receptor (Homo sapiens, UniProt P04150)
T1 sequence (P04150 whole entry): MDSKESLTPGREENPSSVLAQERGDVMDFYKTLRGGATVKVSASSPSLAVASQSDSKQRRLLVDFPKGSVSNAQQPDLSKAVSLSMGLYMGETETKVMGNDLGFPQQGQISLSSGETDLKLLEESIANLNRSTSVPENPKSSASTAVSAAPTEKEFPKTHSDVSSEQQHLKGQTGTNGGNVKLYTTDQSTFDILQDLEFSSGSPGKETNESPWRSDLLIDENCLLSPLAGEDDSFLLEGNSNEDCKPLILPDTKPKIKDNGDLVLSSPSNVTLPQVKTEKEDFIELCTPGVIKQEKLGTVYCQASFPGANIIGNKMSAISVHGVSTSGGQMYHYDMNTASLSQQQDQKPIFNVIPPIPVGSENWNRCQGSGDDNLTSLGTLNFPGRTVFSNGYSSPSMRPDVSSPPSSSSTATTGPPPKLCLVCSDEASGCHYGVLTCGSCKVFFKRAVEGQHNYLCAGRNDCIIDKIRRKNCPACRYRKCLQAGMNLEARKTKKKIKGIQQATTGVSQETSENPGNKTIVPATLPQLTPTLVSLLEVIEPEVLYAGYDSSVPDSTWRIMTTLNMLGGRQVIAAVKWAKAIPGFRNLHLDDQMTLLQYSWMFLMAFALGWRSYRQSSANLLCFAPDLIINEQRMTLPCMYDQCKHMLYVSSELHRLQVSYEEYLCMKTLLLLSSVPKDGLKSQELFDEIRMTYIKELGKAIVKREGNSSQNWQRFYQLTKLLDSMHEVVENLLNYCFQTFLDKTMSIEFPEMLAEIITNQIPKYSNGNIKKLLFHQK
Assay: Binding Activity of Compound of the Present Invention to Glucocorticoid Receptor GR
Procedure: The binding activity of the compound to GR was determined using the Polarscreen Glucocorticoid Receptor Assay Kit, Red (brand: Thermo, Cat. No: A15898). […] The highest concentration was 100 μM, 8 concentrations in total.

## C[C@]12C=CC(=O)C=C1CC[C@@H]1[C@@H]2[C@@H](O)C[C@@]2(C)[C@H]1C[C@H]1O[C@@H](c3ccc(Cc4ccc5cc[nH]c5c4)cc3)O[C@]12C(=O)CO [US20240307415, Compound 003]
  EC50: 121 nM
